Data taken from US20120207763A1, “PYRROLOPYRIMIDINE COMPOUNDS AND THEIR USES” (ASTEX THERAPEUTICS LIMITED, priority 2006, published 2012).

Key:
Assay type in all cases: biochemical
[1] = molecular target: CDK2/Cyclin-A kinase complex (Homo sapiens, UniProt P24941); assay: CDK2 IMAP fluorescence polarization assay; conditions: Table E; read-out: CDK2cyA IMAP/IC50 [umol l − 1]
Procedure, shortened: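 Fluorescence polarization (IMAP) using purified active CDK2/Cyclin-A complex with a TAMRA-tagged Histone H1-derived peptide substrate; phosphorylated peptide bound by a metal-containing reagent raises polarization. Inhibition read as reduced fluorescence polarization signal.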

CDK4 = CDK4 (Homo sapiens, UniProt P11802); assay: CDK4 HTRF assay; conditions: Table E; read-out: CDK4 HTRF/IC50 [umol l − 1]
Sequence of CDK4 (P11802 whole entry): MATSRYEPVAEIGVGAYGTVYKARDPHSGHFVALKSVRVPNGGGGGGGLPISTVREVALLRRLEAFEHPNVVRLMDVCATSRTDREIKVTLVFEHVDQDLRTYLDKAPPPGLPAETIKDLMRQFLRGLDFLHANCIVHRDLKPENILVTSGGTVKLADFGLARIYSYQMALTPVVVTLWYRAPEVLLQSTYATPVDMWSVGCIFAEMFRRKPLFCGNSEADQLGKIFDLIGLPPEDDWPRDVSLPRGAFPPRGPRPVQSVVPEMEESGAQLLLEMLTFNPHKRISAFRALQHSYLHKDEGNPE
Sequence of CDK4 (P24385 whole entry partner): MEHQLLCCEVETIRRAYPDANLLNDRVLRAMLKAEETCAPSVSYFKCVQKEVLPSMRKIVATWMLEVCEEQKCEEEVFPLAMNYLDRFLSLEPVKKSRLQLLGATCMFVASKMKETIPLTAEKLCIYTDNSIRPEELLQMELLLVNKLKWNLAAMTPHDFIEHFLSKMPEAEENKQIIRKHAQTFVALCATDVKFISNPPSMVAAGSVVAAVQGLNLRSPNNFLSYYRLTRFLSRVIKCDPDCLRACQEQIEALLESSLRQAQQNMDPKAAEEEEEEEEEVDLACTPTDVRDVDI

hCDK1/B = hCDK1/B (Homo sapiens, UniProt P06493); assay: hCDK1/B assay; conditions: Table E; read-out: hCDK1/B/IC50 [umol l − 1]
Sequence of hCDK1/B (P06493 whole entry): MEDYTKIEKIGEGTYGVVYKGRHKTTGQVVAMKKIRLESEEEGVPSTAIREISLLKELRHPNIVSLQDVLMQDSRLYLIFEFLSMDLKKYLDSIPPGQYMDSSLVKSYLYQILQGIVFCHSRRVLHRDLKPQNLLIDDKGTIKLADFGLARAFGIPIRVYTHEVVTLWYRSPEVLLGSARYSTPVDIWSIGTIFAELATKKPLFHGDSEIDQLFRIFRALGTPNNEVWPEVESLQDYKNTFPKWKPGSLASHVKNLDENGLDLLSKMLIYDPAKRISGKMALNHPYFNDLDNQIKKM
Sequence of hCDK1/B (P14635 whole entry partner): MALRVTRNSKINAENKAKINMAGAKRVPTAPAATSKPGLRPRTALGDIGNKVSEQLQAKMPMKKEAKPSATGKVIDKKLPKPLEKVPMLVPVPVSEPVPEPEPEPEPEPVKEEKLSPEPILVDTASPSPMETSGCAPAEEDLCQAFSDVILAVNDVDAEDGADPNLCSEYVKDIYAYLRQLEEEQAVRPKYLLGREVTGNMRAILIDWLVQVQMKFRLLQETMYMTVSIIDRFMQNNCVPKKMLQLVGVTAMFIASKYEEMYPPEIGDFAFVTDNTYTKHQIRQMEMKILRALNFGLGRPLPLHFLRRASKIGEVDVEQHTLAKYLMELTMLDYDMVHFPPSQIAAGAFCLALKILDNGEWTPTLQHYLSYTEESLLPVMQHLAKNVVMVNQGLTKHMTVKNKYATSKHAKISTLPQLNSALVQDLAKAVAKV

Compound | IC50 [1] [µM] | IC50 (CDK4) [µM] | IC50 (hCDK1/B) [µM]
Cc1c(C#N)n(C2CCCC2)c2nc(Nc3ccc(N4CCC(N(C)C)CC4)cn3)ncc12 [Example 394] | > 10 | < 1 | > 15
CCC(C)n1c(C#N)c(C)c2cnc(Nc3ccc(N4CCC(N(C)C)CC4)cc3)nc21 (centres unmarked) [Example 396] | < 1 | < 1 | < 1
CCC(CC)n1c(C(=O)N(C)C)cc2cnc(Nc3ccc(CN4CCNCC4)cc3)nc21 [Example 342] | < 10 | < 1 | < 10
Cc1cn(C2CCCC2)c2nc(Nc3ccc(N4CCOCC4)cn3)ncc12 [Example 302] | > 10 | – | > 10
Cc1c(C(=O)N(C)C)n(C2CCCC2)c2nc(Nc3ccc(N4CCNCC4)cn3)ncc12 [Example 392] | < 10 | – | > 10
CCC(CC)n1c(C(=O)Nc2ccc(OC)cc2)cc2cnc(Nc3ccc(N4CCNCC4)cc3)nc21 [Example 347] | > 10 | < 1 | > 10
CCC(CC)n1c(CNc2cccnc2)cc2cnc(Nc3ccc(N4CCN(C(C)=O)CC4)cc3)nc21 [Example 369] | < 10 | – | < 10
Cc1cn(-c2c[nH]cn2)c2nc(Nc3ccc(N4CCNCC4)cn3)ncc12 [Example 324] | > 10 | < 1 | > 10
CN(C)C(=O)c1cc2cnc(Nc3ccc(N4CCNCC4)cc3)nc2n1C1CCCC1 [Example 338] | < 10 | < 1 | < 10
Cc1c(-c2cnco2)n(C2CCCCCC2)c2nc(Nc3ccc(N4CCNCC4)cn3)ncc12 [Example 400] | < 1 | < 1 | < 1
CN(C)C(=O)c1cc2cnc(Nc3ccc(CN4CCNCC4)cc3)nc2n1C1CCCC1 [Example 339] | > 10 | < 1 | > 10
Cc1cn(C2CCCC2)c2nc(Nc3nccc4ccccc34)ncc12 [Example 303] | > 10 | > 10 | > 10
OC1CCC(n2ccc3cnc(Nc4ccc(N5CCNCC5)cc4)nc32)C1 (centres unmarked) [Example 247] | < 1 | < 1 | < 1
CCC(CC)n1c(CNCCc2cc3ccccc3[nH]2)cc2cnc(Nc3ccc(N4CCN(C(C)=O)CC4)cc3)nc21 [Example 368] | < 1 | < 1 | < 10
CCC(CC)n1c(CNC2CCCC2)cc2cnc(Nc3ccc(N4CCN(C(C)=O)CC4)cc3)nc21 [Example 370] | < 10 | – | < 10
CCN(CC)c1ccc(Nc2ncc3c(C)cn(C4CCCC4)c3n2)cc1 [Example 457] | > 10 | > 10 | > 10
Cc1noc(-c2c(C)c3cnc(Nc4ccc(N5CCNCC5)cn4)nc3n2C2CCCC2)n1 [Example 407] | < 10 | < 1 | < 10
Cc1c(C(N)=O)n(C2CCCC2)c2nc(Nc3ccc(N4CCNCC4)cn3)ncc12 [Example 391] | > 10 | < 1 | > 10
Cc1cn(C2CCCC2)c2nc(Nc3ccc(N4CCCCC4)cc3)ncc12 [Example 278] | > 10 | – | > 10
CN(C)C(=O)c1cc2cnc(Nc3ccc(N4CCN(C(=O)OC(C)(C)C)CC4)cc3)nc2n1C1CCCC1 [Example 463] | < 10 | < 1 | < 10
Cc1nnc(-c2c(C)c3cnc(Nc4ccc(N5CCNCC5)cn4)nc3n2C2CCCC2)o1 [Example 386, [7-Cyclopentyl-5-methyl-6-(5-methyl-[1,3,4]oxadiazol-2-yl)-7H-pyrrolo[2,3d]pyrimidin-2-yl]-(5-piperazin-1-yl-pyridin-2-yl)-amine] | < 10 | < 1 | < 10
CCC(CC)n1c(C(=O)Nc2ccc(C(F)(F)F)cc2)cc2cnc(Nc3ccc(N4CCNCC4)cc3)nc21 [Example 359] | < 10 | < 1 | < 10
Cc1cn(C2CCCC2)c2nc(NN3CCN(C)CC3)ncc12 [Example 306] | > 10 | > 10 | > 10
Cc1cn(C2CCCC2)c2nc(Nc3ccc(N4CCCCC4)nc3)ncc12 [Example 284] | > 15 | > 10 | > 15
Cc1cn(C2CCCC2)c2nc(Nc3ccc4[nH]ncc4c3)ncc12 [Example 281] | < 10 | – | < 10
Cc1cn(C2CCCC2)c2nc(Nc3ccc(CN4CCNC(=O)C4)cc3)ncc12 [Example 290] | < 10 | < 1 | < 10
Cc1cn(C2CCCC2)c2nc(Nc3ccc(CN4CCN(C(=O)OC(C)(C)C)CC4)cc3)ncc12 [Example 462] | > 15 | – | > 15
CCC(CC)n1c(C(=O)Nc2ccccn2)cc2cnc(Nc3ccc(N4CCNCC4)cc3)nc21 [Example 351] | < 10 | < 1 | < 10
